Source: ChEMBL document CHEMBL3525998, “Metabolism of saikosaponin a in rats: diverse oxidations on the aglycone moiety in liver and intestine in addition to hydrolysis of glycosidic bonds” (Drug Metab Dispos, 2013)

Experiments:
Type in all cases: ADME, organism-based
[1] = Drug excretion in Sprague-Dawley rat feces treated with saikosaponin a at 15 mg/kg, iv by LC-DAD-IT-TOF-MS analysis; parameters: dose 15 mg/kg, route intravenous; conditions: in vivo
[2] = Drug excretion in Sprague-Dawley rat feces treated with saikosaponin a at 50 mg/kg, po administered through gavage by LC-DAD-IT-TOF-MS analysis; parameters: dose 50 mg/kg, route oral; conditions: in vivo
Rattus norvegicus = species: Rattus norvegicus; assay: Drug level in Sprague-Dawley rat assessed as retention time treated with saikosaponin a by LC-DAD-IT-TOF-MS analysis
[3] = Drug recovery in po dosed rat excreted feces measured over 0 to 24 hrs after drug administration by HPLC analysis relative to starting drug dose; conditions: faeces, read-out: Drug recovery
[4] = Drug excretion in Sprague-Dawley rat urine treated with saikosaponin a at 50 mg/kg, po administered through gavage by LC-DAD-IT-TOF-MS analysis; parameters: dose 50 mg/kg, route oral; conditions: in vivo
[5] = Drug excretion in Sprague-Dawley rat bile treated with saikosaponin a at 15 mg/kg, iv by LC-DAD-IT-TOF-MS analysis; parameters: dose 15 mg/kg, route intravenous; conditions: in vivo
Plasma [6] = assay: Drug level in Sprague-Dawley rat plasma treated with saikosaponin a at 15 mg/kg, iv by LC-DAD-IT-TOF-MS analysis; parameters: dose 15 mg/kg, route intravenous; conditions: in vivo
[7] = Drug excretion in Sprague-Dawley rat urine treated with saikosaponin a at 15 mg/kg, iv by LC-DAD-IT-TOF-MS analysis; parameters: dose 15 mg/kg, route intravenous; conditions: in vivo
[8] = Drug excretion in Sprague-Dawley rat bile treated with saikosaponin a at 50 mg/kg, po administered through gavage by LC-DAD-IT-TOF-MS analysis; parameters: dose 50 mg/kg, route oral; conditions: in vivo
Plasma [9] = assay: Drug level in Sprague-Dawley rat plasma treated with saikosaponin a at 50 mg/kg, po administered through gavage by LC-DAD-IT-TOF-MS analysis; parameters: dose 50 mg/kg, route oral; conditions: in vivo

| SMILES | Drug excretion [1] | Drug excretion [2] | Retention_time (Rattus norvegicus) [min] | dose excreted [3] [%] | Drug excretion [4] | Drug excretion [5] | Drug metabolism (Plasma [6]) | Drug excretion [7] | Drug excretion [8] | Drug metabolism (Plasma [9]) |
| --- | --- | --- | --- | --- | --- | --- | --- | --- | --- | --- |
| C[C@H]1O[C@@H](O[C@H]2CC[C@@]3(C)[C@@H](CC[C@]4(C)[C@@H]3CC=C3[C@@H]5CC(C)(C)CC[C@]5(CO)[C@@H](O)C[C@]34C)[C@]2(C)CO)[C@H](O)[C@@H](O[C@@H]2O[C@H](CO)[C@@H](O)[C@H](O)[C@H]2O)[C@H]1O | – | – | 22.9 | – | – | metabolite_detected | – | – | – | – |
| C[C@H]1O[C@@H](O[C@H]2CC[C@@]3(C)[C@@H](CC[C@]4(C)[C@@H]3C=C[C@]35OC[C@@]6(CCC(C)(C)C[C@H]63)[C@@H](O)C[C@]54C)[C@]2(C)CO)[C@H](O)[C@@H](O)[C@H]1O | metabolite_detected | metabolite_detected | 45.5 | > 50 | metabolite_detected | metabolite_detected | metabolite_detected | metabolite_detected | metabolite_detected | metabolite_detected |
| CC1(C)CC[C@]23CO[C@@]4(C=C[C@@H]5[C@@]6(C)CC[C@H](O)[C@@](C)(CO)[C@@H]6CC[C@@]5(C)[C@]4(C(=O)O)C[C@@H]2O)[C@@H]3C1 | metabolite_detected | metabolite_detected | 18.4 | – | metabolite_detected | – | – | – | – | – |
| CC1(C)CC[C@]23CO[C@@]4(C=C[C@@H]5[C@@]6(C)C=C[C@H](O)[C@@](C)(CO)[C@@H]6CC[C@@]5(C)[C@]4(C)C[C@@H]2O)[C@@H]3C1 | – | metabolite_detected | 53.7 | – | metabolite_detected | – | – | – | – | – |

Second part, the molecule after the results:

| Drug excretion [1] | Drug excretion [2] | Retention_time (Rattus norvegicus) [min] | dose excreted [3] [%] | Drug excretion [4] | Drug excretion [5] | Drug metabolism (Plasma [6]) | Drug excretion [7] | Drug excretion [8] | Drug metabolism (Plasma [9]) | SMILES |
| --- | --- | --- | --- | --- | --- | --- | --- | --- | --- | --- |
| metabolite_detected | metabolite_detected | 48.3 | > 50 | metabolite_detected | – | – | – | – | – | CC1(C)CC[C@]23CO[C@@]4(C=C[C@@H]5[C@@]6(C)CC[C@H](O)[C@@](C)(CO)[C@@H]6CC[C@@]5(C)[C@]4(C)C[C@@H]2O)[C@@H]3C1 |
| – | metabolite_detected | 52.3 | – | metabolite_detected | – | – | – | – | – | CC1(C)CC[C@]23CO[C@@]4(C=C[C@@H]5[C@@]6(C)CCC(=O)[C@@](C)(CO)[C@@H]6CC[C@@]5(C)[C@]4(C)C[C@@H]2O)[C@@H]3C1 |
